In US9040526B2, “Benzylpyrrolidinone derivatives as modulators of chemokine receptor activity” (Bristol-Myers Squibb Company, priority 2010, dated 2015) one finds Ki data, which are given here for 19 compounds.

The target of this assay is T1, CCR2 receptor (Homo sapiens, UniProt P41597).
T1 construct: THP-1 human monocytic leukemic cell line, which expresses endogenous CCR2; endogenous in cells; host or cells: THP-1 human monocytic leukemic cell line (whole cells)
T1 sequence (P41597 1-360 isoform P41597-2): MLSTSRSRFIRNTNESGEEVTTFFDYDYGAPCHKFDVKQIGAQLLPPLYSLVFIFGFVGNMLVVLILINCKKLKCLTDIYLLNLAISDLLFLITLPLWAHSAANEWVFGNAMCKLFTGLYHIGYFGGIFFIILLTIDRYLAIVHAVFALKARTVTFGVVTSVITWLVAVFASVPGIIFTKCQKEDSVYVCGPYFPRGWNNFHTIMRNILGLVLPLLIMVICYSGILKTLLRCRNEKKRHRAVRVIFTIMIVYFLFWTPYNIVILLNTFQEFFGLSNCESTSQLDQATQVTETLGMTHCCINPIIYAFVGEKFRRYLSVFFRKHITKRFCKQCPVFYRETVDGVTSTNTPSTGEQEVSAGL
As to the kind of experiment: THP-1 monocytic cell binding: whole cell-based radioligand competition assay (125I-human MCP-1). Conditions: THP-1 cells expressing endogenous CCR2; 125I-MCP-1 tracer 0.2 nM; n = 1 unless otherwise noted. On the procedure: THP-1 Monocytic Cell Binding: Whole Cell-Based Assay
The human CCR2 binding assay was also established with the THP-1 human monocytic leukemic cell line, which expresses endogenous CCR2, using ^125I-human MCP-1 as the tracer ligand. Radioligand competition binding assays were used for assessment of binding affinity of test compounds to the CCR2 receptor. For radioligand competition studies, 100 μl containing 2.5×10^5 THP-1 cells/well (in assay buffer containing 50 mM HEPES, pH7.4, 5 mM MgCl2, 1 mM CaCl2 and 0.5% BSA) were added to 96-well assay plates containing the test compounds in 3-fold serial dilution, with final concentrations ranging from 5 μM to 100 pM. Subsequently, 50 μl ^125I-MCP-1 radioligand at a final concentration of 0.2 nM in assay buffer were added to the reaction. After a 90 minute incubation period at room temperature, the binding reaction was terminated by harvesting on GF/B filter plates (PerkinElmer Cat. No. 6005177) followed by washing with ice-cold wash buffer (50 mM HEPES, pH 7.4, 0.1% BSA, 0.5 M NaCl) to remove unbound ligand. After washing, the plate was dried for 45 minutes at 60° C. followed by addition of 40 μl MicroScint 20 scintillation fluid, sealed and analyzed by the Packard TopCount reader. Non-specific binding was determined in the presence of 10 μM (a molar excess of 5000 fold) of an in-house CCR2 small molecule antagonist (CCR2 IC50=2 nM). Specific binding of ^125I-MCP-1 was calculated as the difference between total and non-specific binding. The competition data was plotted as a percentage inhibition of radioligand specific bound in the absence of test compound (percent of total signal). After correcting for non-specific binding, IC50 values were determined. The IC50 is defined as the concentration of test compound required to reduce ^125-MCP-1 specific binding by 50% and was calculated using the four parameter logistic equation to fit the normalized data.
Compounds of the present invention were tested in the THP-1 monocytic binding assay described above and the results shown in Table 3 below were obtained.
For orientation: Loss of bound radioactivity is the signal in a displacement assay; it reports binding, not function.
`CC(C)C1(CCN2CCN(C)CC2)CC2Oc3ccc(C(F)(F)F)cc3CN2C1=O` (stereo not shown) [Example 3l, 2-isopropyl-2-(2-(4-methylpiperazin-1-yl)ethyl)-7-(trifluoromethyl)-2,3,3a,9-tetrahydro-1H-benzo[e]pyrrolo[2,1-b][1,3]oxazin-1-one] displayed an inhibitory constant (Ki) of 7910 nM.

As for `CC(C)C1(CCN2CCC(Cc3ccccc3)CC2)CC2Oc3ccc(C(F)(F)F)cc3CN2C1=O` (stereo not shown) [Example 3n, 2-(2-(4-benzylpiperidin-1-yl)ethyl)-2-isopropyl-7-(trifluoromethyl)-2,3,3a,9-tetrahydro-1H-benzo[e] pyrrolo[2,1-b][1,3]oxazin-1-one], the Ki is 1490 nM.

Compound `CC(C)C1(CCN2CCC(O)(c3ccccc3)CC2)CC2Oc3ccc(C(F)(F)F)cc3CN2C1=O` (stereo not shown) [Example 3m, 2-(2-(4-hydroxy-4-phenylpiperidin-1-yl)ethyl)-2-isopropyl-7-(trifluoromethyl)-2,3,3a,9-tetrahydro-1H-benzo[e]pyrrolo[2,1-b][1,3]oxazin-1-one] yielded an inhibitory constant (Ki) of 153 nM.

Consider `CC(C)C1(CCN2CCN(c3ccc(F)cc3)CC2)CC2Oc3ccc(C(F)(F)F)cc3CN2C1=O` (stereo not shown) [Example 3k, 2-(2-(4-(4-fluorophenyl)piperazin-1-yl)ethyl)-2-isopropyl-7-(trifluoromethyl)-2,3,3a,9-tetrahydro-1H-benzo[e]pyrrolo[2,1-b][1,3] oxazin-1-one], for which the Ki was 1410 nM.

`CC(C)C1(CCN2CCC(c3cccc(C(=O)O)c3)CC2)CC2Oc3ccc(C(F)(F)F)cc3CN2C1=O` (stereo not shown) [Example 3c, 3-(1-(2-(2-isopropyl-1-oxo-7-(trifluoromethyl)-2,3,3a,9-tetrahydro-1H-benzo[e]pyrrolo[2,1-b][1,3]oxazin-2-yl)ethyl)piperidin-4-yl)benzoic acid] displayed a Ki of 2610 nM.

As to `CC(C)C1(CCN2CCc3ccccc3C2)CC2Oc3ccc(C(F)(F)F)cc3CN2C1=O` (stereo not shown) [Example 3o, 2-(2-(3,4-dihydroisoquinolin-2(1H)-yl)ethyl)-2-isopropyl-7-(trifluoromethyl)-2,3,3a,9-tetrahydro-1H-benzo[e] pyrrolo[2,1-b][1,3]oxazin-1-one], the inhibition constant (Ki) amounted to 3890 nM.

The compound `CC(C)C1(CCN2CCC(c3ccccc3)C2)CC2Oc3ccc(C(F)(F)F)cc3CN2C1=O` (stereo not shown) [Example 3p, 2-isopropyl-2-(2-(3-phenylpyrrolidin-1-yl)ethyl)-7-(trifluoromethyl)-2,3,3a,9-tetrahydro-1H-benzo[e] pyrrolo[2,1-b][1,3] oxazin-1-one] yielded an inhibition constant Ki of 23 nM.

`CC(C)C1(CCN2CCC3(C=Cc4ccccc43)CC2)CC2Oc3ccc(C(F)(F)F)cc3CN2C1=O` (single isomer, unassigned) [3f, diastereomer 1] displayed an inhibitory constant (Ki) of 45.4 nM.

Compound `CC(C)C1(CCN2CCC(c3ccccc3)CC2)CCN(Cc2cc(C(F)(F)F)cc(C(F)(F)F)c2)C1=O` (stereo not shown) [Example 1b, 1-(3,5-bis(trifluoromethyl)benzyl)-3-isopropyl-3-(2-(4-phenylpiperidin-1-yl)ethyl)pyrrolidin-2-one] returned a Ki of 933 nM.

Compound `CC(C)C1(CCNC2CCC(O)CC2)CC2Oc3ccc(C(F)(F)F)cc3CN2C1=O` (mixture of isomers) [Example 3i, 2-(2-((1r,4r)-4-hydroxycyclohexylamino)ethyl)-2-isopropyl-7-(trifluoromethyl)-2,3,3a,9-tetrahydro-1H-benzo[e] pyrrolo[2,1-b][1,3]oxazin-1-one] displayed a Ki of 639 nM.

With `CC(C)C1(CCCN2CCC(c3ccccc3)CC2)CCN(Cc2cc(C(F)(F)F)cc(C(F)(F)F)c2)C1=O` (stereo not shown) [Example 2a, 1-(3,5-bis(trifluoromethyl)benzyl)-3-isopropyl-3-(3-(4-phenylpiperidin-1-yl)propyl)pyrrolidin-2-one], the Ki was 3510 nM.

With `CC(C)C1(CCN2CCC(c3ccccc3)CC2)CC2Oc3ccc(C(F)(F)F)cc3CN2C1=O` (single isomer, unassigned) [3b, diastereomer 1], affinity was put at a Ki of 934 nM.

The compound `CC(C)C1(CCNC2CCOCC2)CC2Oc3ccc(C(F)(F)F)cc3CN2C1=O` (single isomer, unassigned) [3h, diastereomer 2] had a Ki of 495 nM.

Take `CC(C)C1(CCN2CCC(c3ccccc3)CC2)CC2Oc3ccc(C(F)(F)F)cc3CN2C1=O` (single isomer, unassigned) [3b, diastereomer 2]: the Ki was 37.8 nM.

In turn, `CC(C)C1(CCN2CCC3(C=Cc4ccccc43)CC2)CC2Oc3ccc(C(F)(F)F)cc3CN2C1=O` (single isomer, unassigned) [3f, diastereomer 2] had a Ki of 11 nM.

`CC(C)C1(CCN2CCC(n3c(=O)[nH]c4ccccc43)CC2)CC2Oc3ccc(C(F)(F)F)cc3CN2C1=O` (stereo not shown) [Example 3j, 2-isopropyl-2-(2-(4-(2-oxo-2,3-dihydro-1H-benzo[d]imidazol-1-yl)piperidin-1-yl)ethyl)-7-(trifluoromethyl)-2,3,3a,9-tetrahydro-1H-benzo[e]pyrrolo[2,1-b][1,3] oxazin-1-one] returned an inhibitory constant (Ki) of 1280 nM.

`CC(C)C1(CCN2CC[C@@]3(C=Cc4ccccc43)[C@@H](C)C2)CCN(Cc2cc(C(F)(F)F)cc(C(F)(F)F)c2)C1=O` (stereo partly drawn) [Example 1c, 1-(3,5-bis(trifluoromethyl)benzyl)-3-isopropyl-3-(2-((1R,3′R)-3′-methylspiro[indene-1,4′-piperidine]-1′-yl)ethyl) pyrrolidin-2-one] yielded an inhibitory constant (Ki) of 736 nM.

`CC(C)C1(CCN2CCCCC2)CCN(Cc2cc(C(F)(F)F)cc(C(F)(F)F)c2)C1=O` (stereo not shown) [Example 1a, 1-(3,5-bis(trifluoromethyl)benzyl)-3-isopropyl-3-(2-(piperidin-1-yl)ethyl)pyrrolidin-2-one]: the inhibition constant Ki amounted to 983 nM.

Regarding `CC(C)C1(CCNC(C)(C)C)CC2Oc3ccc(C(F)(F)F)cc3CN2C1=O` (stereo not shown) [Example 3a, 2-(2-(tert-butylamino)ethyl)-2-isopropyl-7-(trifluoromethyl)-2,3,3,a,9-tetrahydro-1H-benzo[e]pyrrolo[2,1-b][1,3]oxazin-1-one], the Ki is 2540 nM.

By Ki is commonly meant a dissociation constant, usually derived from enzyme kinetics or from competition with a known ligand. Low values mean higher affinity, high ones lower affinity.
